Assay results published in US11591365B2, “BCL9 peptides and variants thereof” (WntRx Pharmaceuticals Inc., priority 2017, dated 2023).
Where a SMILES comes first, the peptide text is derived from it. Bridges are numbered along the chain shown (N, C = ends). [ ]: non-standard residue; d: D form. 2Nal = N[C@@H](Cc1ccc2ccccc2c1)C(=O)O; d2Nal = N[C@H](Cc1ccc2ccccc2c1)C(=O)O; NMeCha = CN[C@@H](CC1CCCCC1)C(=O)O; NMeR = CN[C@@H](CCCNC(=N)N)C(=O)O; hArg = N=C(N)NCCCC[C@H](N)C(=O)O; tBuAla = CC(C)(C)C[C@H](N)C(=O)O; NMeQ = CN[C@@H](CCC(N)=O)C(=O)O; Cha = N[C@@H](CC1CCCCC1)C(=O)O; dCha = N[C@H](CC1CCCCC1)C(=O)O; Tle = CC(C)(C)[C@H](N)C(=O)O; S5 = C=CCCC[C@](C)(N)C(=O)O

tested on: Colo320DM; assay: Colo320DM cell viability; type: cell-based, human
Text: In some embodiments, a polypeptide described herein inhibits binding of BLC9 to β-catenin when assessed in a cell-viability assay. In some embodiments, the cell-viability assay is a CellTiterGlo luminescent assay, wherein the viability of cells is quantitatively measured. Various cell lines, transformed cell lines or primary cells derived from a healthy subject or subject suffering from a disease can be used in this assay.

In order of falling IC50:
1. CC[C@H](C)[C@@H]1NC(=O)[C@@](C)(NC(=O)[C@H](CCCNC(=N)N)NC(=O)[C@H](CC(C)C)NC(=O)[C@@H](NC(=O)[C@H](CCC(N)=O)NC(=O)[C@H](CC(C)C)NC(=O)[C@H](CO)NC(=O)[C@H](CCCNC(=N)N)NC(=O)[C@H](CCC(N)=O)NC(=O)[C@H](CCCNC(=N)N)NC(=O)[C@H](Cc2c[nH]cn2)NC(C)=O)[C@@H](C)O)CCCC=CCCC[C@@](C)(C(=O)N[C@@H](CC2CCCCC2)C(=O)N[C@@H](Cc2ccc3ccccc3c2)C(N)=O)NC(=O)[C@H](CCCNC(=N)N)N(C)C(=O)[C@H](CCC(N)=O)NC1=O [SEQ ID NO: 190, HRQRSLQTLRXIQ(N-MeArg)X(Cha)(2-Nal)] (Ac-HRQRSLQTLR[S5]IQ[NMeR][S5][Cha][2Nal]-NH2; staple 11-15)  5890 nM
2. CC[C@H](C)[C@@H]1NC(=O)[C@@](C)(NC(=O)[C@H](CCCNC(=N)N)NC(=O)[C@H](CC(C)C)NC(=O)[C@@H](NC(=O)[C@H](CCC(N)=O)NC(=O)[C@H](CC(C)C)NC(=O)[C@H](CO)NC(=O)[C@H](CCCNC(=N)N)NC(=O)[C@H](CCC(N)=O)N(C)C(=O)[C@H](CCCNC(=N)N)NC(=O)[C@H](Cc2c[nH]cn2)NC(C)=O)[C@@H](C)O)CCCC=CCCC[C@@](C)(C(=O)N[C@H](C(=O)N[C@@H](Cc2ccc3ccccc3c2)C(N)=O)C(C)(C)C)NC(=O)[C@H](CCCNC(=N)N)NC(=O)[C@H](CCC(N)=O)NC1=O [SEQ ID NO: 194, HR(N-MeGln)RSLQTLRXIQRX(Tle)(2-Nal)] (Ac-HR[NMeQ]RSLQTLR[S5]IQR[S5][Tle][2Nal]-NH2; staple 11-15)  3750 nM
3. CC[C@H](C)[C@@H]1NC(=O)[C@@](C)(NC(=O)[C@H](CCCNC(=N)N)NC(=O)[C@H](CC(C)C)NC(=O)[C@@H](NC(=O)[C@H](CCC(N)=O)NC(=O)[C@H](CC(C)C)NC(=O)[C@H](CO)NC(=O)[C@H](CCCNC(=N)N)NC(=O)[C@H](CCC(N)=O)NC(=O)[C@H](CCCNC(=N)N)NC(=O)[C@H](Cc2c[nH]cn2)NC(C)=O)[C@@H](C)O)CCCC=CCCC[C@@](C)(C(=O)N[C@@H](CC2CCCCC2)C(=O)N[C@H](Cc2ccc3ccccc3c2)C(N)=O)NC(=O)[C@H](CCCNC(=N)N)NC(=O)[C@H](CCC(N)=O)NC1=O [SEQ ID NO: 188, HRQRSLQTLRXIQRX(Cha)(2DNal)] (Ac-HRQRSLQTLR[S5]IQR[S5][Cha][d2Nal]-NH2; staple 11-15)  3280 nM
4. CC[C@H](C)[C@@H]1NC(=O)[C@@](C)(NC(=O)[C@H](CCCNC(=N)N)N(C)C(=O)[C@H](CC(C)C)NC(=O)[C@@H](NC(=O)[C@H](CCC(N)=O)NC(=O)[C@H](CC(C)C)NC(=O)[C@H](CO)NC(=O)[C@H](CCCNC(=N)N)NC(=O)[C@H](CCC(N)=O)NC(=O)[C@H](CCCNC(=N)N)NC(=O)[C@H](Cc2c[nH]cn2)NC(C)=O)[C@@H](C)O)CCCC=CCCC[C@@](C)(C(=O)N[C@@H](CC2CCCCC2)C(=O)N[C@@H](Cc2ccc3ccccc3c2)C(N)=O)NC(=O)[C@H](CCCNC(=N)N)NC(=O)[C@H](CCC(N)=O)NC1=O [SEQ ID NO: 189, HRQRSLQTL(N-MeArg)XIQRX(Cha)(2-Nal)] (Ac-HRQRSLQTL[NMeR][S5]IQR[S5][Cha][2Nal]-NH2; staple 11-15)  3250 nM
5. CC[C@H](C)[C@@H]1NC(=O)[C@@](C)(NC(=O)[C@H](CCCNC(=N)N)NC(=O)[C@H](CC(C)C)NC(=O)[C@@H](NC(=O)[C@H](CCC(N)=O)NC(=O)[C@H](CC(C)C)NC(=O)[C@H](CO)NC(=O)[C@H](CCCNC(=N)N)NC(=O)[C@H](CCC(N)=O)NC(=O)[C@H](CCCNC(=N)N)NC(=O)[C@H](Cc2c[nH]cn2)NC(C)=O)[C@@H](C)O)CCCC=CCCC[C@@](C)(C(=O)N[C@@H](CC(C)(C)C)C(=O)N[C@@H](Cc2ccc3ccccc3c2)C(N)=O)NC(=O)[C@H](CCCNC(=N)N)NC(=O)[C@H](CCC(N)=O)NC1=O [SEQ ID NO: 191, HRQRSLQTLRXIQRX(β-tBu-Ala)(2-Nal)] (Ac-HRQRSLQTLR[S5]IQR[S5][tBuAla][2Nal]-NH2; staple 11-15)  2870 nM
6. CC[C@H](C)[C@@H]1NC(=O)[C@@](C)(NC(=O)[C@H](CCCNC(=N)N)NC(=O)[C@H](CC(C)C)NC(=O)[C@@H](NC(=O)[C@H](CCC(N)=O)NC(=O)[C@H](CC(C)C)NC(=O)[C@H](CO)NC(=O)[C@H](CCCNC(=N)N)NC(=O)[C@H](CCC(N)=O)N(C)C(=O)[C@H](CCCNC(=N)N)NC(=O)[C@H](Cc2c[nH]cn2)NC(C)=O)[C@@H](C)O)CCCC=CCCC[C@@](C)(C(=O)N[C@@H](CC(C)(C)C)C(=O)N[C@@H](Cc2ccc3ccccc3c2)C(N)=O)NC(=O)[C@H](CCCNC(=N)N)NC(=O)[C@H](CCC(N)=O)NC1=O [SEQ ID NO: 193, HR(N-MeGln)RSLQTLRXIQRX(β-tBu-Ala)(2-Nal)] (Ac-HR[NMeQ]RSLQTLR[S5]IQR[S5][tBuAla][2Nal]-NH2; staple 11-15)  2670 nM
7. CC[C@H](C)[C@@H]1NC(=O)[C@@](C)(NC(=O)[C@H](CCCNC(=N)N)NC(=O)[C@H](CC(C)C)NC(=O)[C@@H](NC(=O)[C@H](CCC(N)=O)NC(=O)[C@H](CC(C)C)NC(=O)[C@H](CO)NC(=O)[C@H](CCCNC(=N)N)NC(=O)[C@H](CCC(N)=O)NC(=O)[C@H](CCCNC(=N)N)NC(=O)[C@H](Cc2c[nH]cn2)NC(C)=O)[C@@H](C)O)CCCC=CCCC[C@@](C)(C(=O)N[C@H](C(=O)N[C@@H](Cc2ccc3ccccc3c2)C(N)=O)C(C)(C)C)NC(=O)[C@H](CCCNC(=N)N)NC(=O)[C@H](CCC(N)=O)NC1=O [SEQ ID NO: 192, HRQRSLQTLRXIQRX(Tle)(2-Nal)] (Ac-HRQRSLQTLR[S5]IQR[S5][Tle][2Nal]-NH2; staple 11-15)  2590 nM
8. CC[C@H](C)[C@@H]1NC(=O)[C@@](C)(NC(=O)[C@H](CCCNC(=N)N)NC(=O)[C@H](CC(C)C)NC(=O)[C@@H](NC(=O)[C@H](CCC(N)=O)NC(=O)[C@H](CC(C)C)NC(=O)[C@H](CO)NC(=O)[C@H](CCCNC(=N)N)NC(=O)[C@H](CCC(N)=O)NC(=O)[C@H](CCCCNC(=N)N)NC(=O)[C@H](Cc2c[nH]cn2)NC(C)=O)[C@@H](C)O)CCCC=CCCC[C@@](C)(C(=O)N[C@@H](CC2CCCCC2)C(=O)N[C@@H](Cc2ccc3ccccc3c2)C(N)=O)NC(=O)[C@H](CCCNC(=N)N)NC(=O)[C@H](CCC(N)=O)NC1=O [SEQ ID NO: 183, H(homoArg)QRSLQTLRXIQRX(Cha)(2-Nal)] (Ac-H[hArg]QRSLQTLR[S5]IQR[S5][Cha][2Nal]-NH2; staple 11-15)  2530 nM
9. CC[C@H](C)[C@@H]1NC(=O)[C@@](C)(NC(=O)[C@H](CCCNC(=N)N)NC(=O)[C@H](CC(C)C)NC(=O)[C@@H](NC(=O)[C@H](CCC(N)=O)NC(=O)[C@H](CC(C)C)NC(=O)[C@H](CO)NC(=O)[C@H](CCCNC(=N)N)N(C)C(=O)[C@H](CCC(N)=O)NC(=O)[C@H](CCCNC(=N)N)NC(=O)[C@H](Cc2c[nH]cn2)NC(C)=O)[C@@H](C)O)CCCC=CCCC[C@@](C)(C(=O)N[C@@H](CC2CCCCC2)C(=O)N[C@@H](Cc2ccc3ccccc3c2)C(N)=O)NC(=O)[C@H](CCCNC(=N)N)NC(=O)[C@H](CCC(N)=O)NC1=O [SEQ ID NO: 184, HRQ(N-MeArg)SLQTLRXIQRX(Cha)(2-Nal)] (Ac-HRQ[NMeR]SLQTLR[S5]IQR[S5][Cha][2Nal]-NH2; staple 11-15)  2430 nM
10. CC[C@H](C)[C@@H]1NC(=O)[C@@](C)(NC(=O)[C@H](CCCNC(=N)N)NC(=O)[C@H](CC(C)C)NC(=O)[C@@H](NC(=O)[C@H](CCC(N)=O)N(C)C(=O)[C@H](CC2CCCCC2)N(C)C(=O)[C@H](CO)NC(=O)[C@H](CCCNC(=N)N)NC(=O)[C@H](CCC(N)=O)NC(=O)[C@H](CCCNC(=N)N)NC(=O)[C@H](Cc2c[nH]cn2)NC(C)=O)[C@@H](C)O)CCCC=CCCC[C@@](C)(C(=O)N[C@@H](CC2CCCCC2)C(=O)N[C@@H](Cc2ccc3ccccc3c2)C(N)=O)NC(=O)[C@H](CCCNC(=N)N)NC(=O)[C@H](CCC(N)=O)NC1=O [SEQ ID NO: 186, HRQRS(N-MeCha)(N-MeGln)TLRXIQRX(Cha)(2-Nal)] (Ac-HRQRS[NMeCha][NMeQ]TLR[S5]IQR[S5][Cha][2Nal]-NH2; staple 11-15)  2230 nM
11. CC[C@H](C)[C@@H]1NC(=O)[C@@](C)(NC(=O)[C@H](CCCNC(=N)N)NC(=O)[C@H](CC(C)C)NC(=O)[C@@H](NC(=O)[C@H](CCC(N)=O)N(C)C(=O)[C@@H](CC2CCCCC2)NC(=O)[C@H](CO)NC(=O)[C@H](CCCNC(=N)N)NC(=O)[C@H](CCC(N)=O)NC(=O)[C@H](CCCNC(=N)N)NC(=O)[C@H](Cc2c[nH]cn2)NC(C)=O)[C@@H](C)O)CCCC=CCCC[C@@](C)(C(=O)N[C@@H](CC2CCCCC2)C(=O)N[C@@H](Cc2ccc3ccccc3c2)C(N)=O)NC(=O)[C@H](CCCNC(=N)N)NC(=O)[C@H](CCC(N)=O)NC1=O [SEQ ID NO: 187, HRQRSD(Cha)(N-MeGln)TLRXIQRX(Cha)(2-Nal)] (Ac-HRQRS[dCha][NMeQ]TLR[S5]IQR[S5][Cha][2Nal]-NH2; staple 11-15; N-terminus and C-terminus assumed)  2180 nM
12. CC[C@H](C)[C@@H]1NC(=O)[C@@](C)(NC(=O)[C@H](CCCNC(=N)N)NC(=O)[C@H](CC(C)C)NC(=O)[C@@H](NC(=O)[C@H](CCC(N)=O)N(C)C(=O)[C@H](CC2CCCCC2)NC(=O)[C@H](CO)NC(=O)[C@H](CCCNC(=N)N)NC(=O)[C@H](CCC(N)=O)NC(=O)[C@H](CCCNC(=N)N)NC(=O)[C@H](Cc2c[nH]cn2)NC(C)=O)[C@@H](C)O)CCCC=CCCC[C@@](C)(C(=O)N[C@@H](CC2CCCCC2)C(=O)N[C@@H](Cc2ccc3ccccc3c2)C(N)=O)NC(=O)[C@H](CCCNC(=N)N)NC(=O)[C@H](CCC(N)=O)NC1=O [SEQ ID NO: 185, HRQRS(Cha)(N-MeGln)TLRXIQRX(Cha)(2-Nal)] (Ac-HRQRS[Cha][NMeQ]TLR[S5]IQR[S5][Cha][2Nal]-NH2; staple 11-15)  1900 nM
